The test system of the experiment is HIV 1. Kind of experiment: Inhibition of HIV-induced syncytium formation in cultures of human lymphocytes (test of preparations against HIV in cell culture, microscopic reading on day 4 after infection). The class given is cell-based. The conditions noted are these: Human immunodeficiency virus 1, 96 h, footnote of Tabelle 1, AZT alone, read-out: MHK-Wert. How it is done: RPMI pH 6,8 Komplettes Medium enthält zusätzlich 20 % foetales Kälberserum und 20 IU/ml rekombinantes Interleukin 2.
Aus frischem Spenderblut mittels Ficoll^R-Gradientenzentrifugation isolierte Lymphozyten werden unter Zusatz von 2 µg/ml Phytohämagglutinin (Wellcome) in komplettem Medium 36 h bei 37°C unter 5 % CO₂ kultiviert. Die Zellen werden nach Zusatz von 10 % DMSO bei einer Zelldichte von 5 x 10⁶ eingefroren und in flüssigem Stickstoff gelagert. Für den Versuch werden die Zellen aufgetaut, in RPMI-Medium gewaschen und in komplettem Medium 3 - 4 Tage kultiviert.
Die Prüfpräparate werden in komplettem Medium gelöst, üblicherweise in einer Konzentration von 1,2 mg/ml. In 24er Multiwell-Schalen werden jeweils 0,5 ml komplettes Medium gegeben. Nach Zusatz von 0,1 ml des gelösten Präparates wird durch Übertragung von jeweils 0,1 ml das Präparat in einer geometrischen Verdünnungsreihe, […], verdünnt. Zu allen Ansätzen werden 0,4 ml einer Suspension mit 5 x 10⁵ Lymphozyten pro ml gegeben.
Die Ansätze werden mit 0,1 ml eines Überstandes von HIV 1 infizierten Lymphozyten versetzt, der so eingestellt ist, daß im Ansatz der cytopathogene Effekt nach 3 - 4 Tagen erkennbar ist. Die Multiplizität der infektiösen Einheit beträgt hierbei 0,01 - 0,02.
Der Versuchsansatz enhält damit folgende Komponenten in komplettem Medium [formula] […]

Converted amounts (≈) assume the structure as drawn.

These results are taken from patent publication EP0377846A1, “Pharmaceutical mixture preparation containing nucleoside derivatives and pentosan polysulfate, and its manufacture and use” (HOECHST AKTIENGESELLSCHAFT, priority 1988, dated 1990).

As for `Cc1cn([C@H]2C[C@H](N=[N+]=[N-])[C@@H](CO)O2)c(=O)[nH]c1=O` [3′-Azido-3′-deoxythymidin], the MIC was determined as 0.1 µg/mL (≈ 0.374 µM).
